Test results: patent publication US8445409B2, “Use of 5-benzyloxymethyl-1,2-isoxazoline derivatives as a herbicide” (Moghu Research Center Ltd., priority 2007, dated 2013)

Columns and labels:
Zoysiagrass = assay: Turfgrass safety test (sod mat pots), visual phytotoxicity; format: in vivo, Zoysia japonica; conditions: for Phytotoxic effect, visual assessment: Zoysiagrass Week 2 / Phytotoxic effect, visual assessment: Zoysiagrass Week 4 / Phytotoxic effect, visual assessment: Zoysiagrass Week 6: 0-10 scale (10=completely killed)
Source text: (§1) Commercially available sod mats of zoysiagrass and bentgrass, Kentucky bluegrass, and perennial ryegrass were purchased. After cutting each turf sod mat in a size of 10 cm×20 cm, it was transplanted to a rectangular plastic pot having a surface area of 300 cm^2 wherein mixed soils including blend of a bed soil (Boonong, Horticultural Nursery Soil No. 3) and sandy loam soil were filled (mixing ratio, 1:1). After transplanting, the grass was mowed (0.5˜1.0 cm in height) once a week, and kept for one month in a greenhouse maintained at 25˜30° C. (day) or 15˜25° C. (night), then the test substance of the present invention was applied at dosage of 4, 2, 1 and 0.5 kg/ha. As a reference, Dithiopyr (32% EC, manufactured by Dongbu Hannong Chemical Company, KOREA) was applied at the recommended rate of 0.48 kg/ha, or twice or quadruple amount thereof, i.e., 0.96 and 1.92 kg/ha, respectively. Spray was made by a track sprayer equipped with a Teejet 8002 nozzle. Spray volume was adjusted to 2,000 L/ha, which was a typical value for an Asian (Korea and Japan) golf course. The spray solution was prepared by dissolving the “test substance” in acetone and adding the same volume of 0.2% (v/v) Tween 20 aqueous solution. Two, four or six weeks after the spray of the test substance, phytotoxicity to the turfgrass were visually evaluated based on 0 to 10 scale (0: no phytotoxic effect, 10: completely killed). The test was conducted in a randomized block design with a three replicates and the results were summarized in the following Table 2 is an average value of the replicates.

Bentgrass = assay: as above; format: in vivo; conditions: 0-10 scale (10=completely killed)
Source text: as §1

Kentucky bluegrass = assay: as above; format: in vivo; conditions: 0-10 scale (10=completely killed)
Source text: as §1

Perennial ryegrass = assay: as above; format: in vivo; conditions: 0-10 scale (10=completely killed)
Source text: as §1

Large crabgrass = assay: Herbicidal activity at different growth stages, fresh weight suppression; format: in vivo; conditions: fresh weight two weeks after treatment
Experimental: (§2) To a cup pot having a surface area of 100 cm^2 wherein mixed soils including blend bed soil (Boonong, Horticultural Bed Soil No. 3) and sandy loam soil were filled (mixing ratio, 1:1), seeds of large crabgrass and annual bluegrass were sown consecutively at an one week interval. The pots were moistened by sub-irrigation, and kept in a greenhouse maintained at 25˜30° C. (day) or 15˜25° C. (night). The said weeds were grown to various growth stages from pre-emergence to the four-leaf stage. Then, they were applied with the test substance of the present invention at dosage of 2, 1, 0.5, or 0.25 kg/ha. As a reference herbicide, Dithiopyr (32% EC, manufactured by Dongbu Hannong Chemical Company), was applied at 0.96, 0.48, or 0.24 kg/ha. Spray volume was adjusted to 2,000 L/ha. The method to spray of the test substance and prepare spray solutions were the same as described above. The reference herbicide was used after it was diluted with 0.2% (v/v) Tween 20 aqueous solution. The test was conducted in a randomized block design with three replicates. Two weeks after the treatment, plant parts remained above the pot soil surface were cut and the fresh weight was weighed. Results are given by a suppression ratio relative to the biomass that was obtained from the untreated group (see, Table 3).

Annual bluegrass = assay: as above; format: in vivo; conditions: fresh weight two weeks after treatment
Experimental: as §2, with “Then, they were applied with the test substance of the present invention at dosage of 2, 1, 0.5, or 0.25 kg/ha. As a reference herbicide, Dithiopyr (32% EC, manufactured by Dongbu Hannong Chemical Company), was applied at 0.96, 0.48, or 0.24 kg/ha.” left out

With `CSC(=O)c1c(C(F)F)nc(C(F)(F)F)c(C(=O)SC)c1CC(C)C` [Dithiopyr, reference compound] the “Phytotoxic effect, visual assessment: Zoysiagrass Week 2” value (shortened to “Phytotoxic effect … Zoysiagrass Week 2”) (Zoysiagrass; 0.48 kg/ha (recommended rate)) was 1.0, the “Phytotoxic effect, visual assessment: Zoysiagrass Week 4” value (“Phytotoxic effect … Zoysiagrass Week 4” below) (Zoysiagrass; 0.48 kg/ha (recommended rate)) was 1.0 and the “Phytotoxic effect, visual assessment: Zoysiagrass Week 6” value (from here on “Phytotoxic effect … Zoysiagrass Week 6”) (Zoysiagrass; 0.48 kg/ha (recommended rate)) was 0.7. For the same compound, the “Phytotoxic effect … Zoysiagrass Week 2” value (Zoysiagrass; 0.96 kg/ha) was 2.3, the “Phytotoxic effect … Zoysiagrass Week 4” value (Zoysiagrass; 0.96 kg/ha) was 1.5 and the “Phytotoxic effect … Zoysiagrass Week 6” value (Zoysiagrass; 0.96 kg/ha) was 1.3. The “Phytotoxic effect … Zoysiagrass Week 2” value (Zoysiagrass; 1.92 kg/ha) was 3.7, the “Phytotoxic effect … Zoysiagrass Week 4” value (Zoysiagrass; 1.92 kg/ha) was 3.3 and the “Phytotoxic effect … Zoysiagrass Week 6” value (Zoysiagrass; 1.92 kg/ha) was 3.0. For the same compound, the “Phytotoxicity against zoysiagrass (in words)” value (Zoysiagrass; in vivo) was “clearly evidencing the phytotoxicity”, the “Phytotoxic effect, visual assessment: Bentgrass Week 2” value (shortened to “Phytotoxic effect … Bentgrass Week 2”) (Bentgrass; 0.48 kg/ha (recommended rate)) was 1.5 and the “Phytotoxic effect, visual assessment: Bentgrass Week 4” value (from here on “Phytotoxic effect … Bentgrass Week 4”) (Bentgrass; 0.48 kg/ha (recommended rate)) was 0.3. For the same compound, the “Phytotoxic effect, visual assessment: Bentgrass Week 6” value (“Phytotoxic effect … Bentgrass Week 6” for short) (Bentgrass; 0.48 kg/ha (recommended rate)) was 0.3, the “Phytotoxic effect … Bentgrass Week 2” value (Bentgrass; 0.96 kg/ha) was 2.3 and the “Phytotoxic effect … Bentgrass Week 4” value (Bentgrass; 0.96 kg/ha) was 1.7. For the same compound, the “Phytotoxic effect … Bentgrass Week 6” value (Bentgrass; 0.96 kg/ha) was 2.0, the “Phytotoxic effect … Bentgrass Week 2” value (Bentgrass; 1.92 kg/ha) was 3.3 and the “Phytotoxic effect … Bentgrass Week 4” value (Bentgrass; 1.92 kg/ha) was 4.2. The “Phytotoxic effect … Bentgrass Week 6” value (Bentgrass; 1.92 kg/ha) was 4.2, the “Phytotoxic effect, visual assessment: Kentucky bluegrass Week 2” value (Kentucky bluegrass; 0.48 kg/ha (recommended rate)) was 1.5 and the “Phytotoxic effect, visual assessment: Kentucky bluegrass Week 4” value (Kentucky bluegrass; 0.48 kg/ha (recommended rate)) was 0.5. For the same compound, the “Phytotoxic effect, visual assessment: Kentucky bluegrass Week 6” value (Kentucky bluegrass; 0.48 kg/ha (recommended rate)) was 0.7, the “Phytotoxic effect, visual assessment: Kentucky bluegrass Week 2” value (Kentucky bluegrass; 0.96 kg/ha) was 2.2 and the “Phytotoxic effect, visual assessment: Kentucky bluegrass Week 4” value (Kentucky bluegrass; 0.96 kg/ha) was 2.7. The “Phytotoxic effect, visual assessment: Kentucky bluegrass Week 6” value (Kentucky bluegrass; 0.96 kg/ha) was 2.7, the “Phytotoxic effect, visual assessment: Kentucky bluegrass Week 2” value (Kentucky bluegrass; 1.92 kg/ha) was 3.7 and the “Phytotoxic effect, visual assessment: Kentucky bluegrass Week 4” value (Kentucky bluegrass; 1.92 kg/ha) was 4.2. The “Phytotoxic effect, visual assessment: Kentucky bluegrass Week 6” value (Kentucky bluegrass; 1.92 kg/ha) was 4.2, the “Phytotoxic effect, visual assessment: Perennial ryegrass Week 2” value (Perennial ryegrass; 0.48 kg/ha (recommended rate)) was 1.3 and the “Phytotoxic effect, visual assessment: Perennial ryegrass Week 4” value (Perennial ryegrass; 0.48 kg/ha (recommended rate)) was 0.3. For the same compound, the “Phytotoxic effect, visual assessment: Perennial ryegrass Week 6” value (Perennial ryegrass; 0.48 kg/ha (recommended rate)) was 0.3, the “Phytotoxic effect, visual assessment: Perennial ryegrass Week 2” value (Perennial ryegrass; 0.96 kg/ha) was 2.0 and the “Phytotoxic effect, visual assessment: Perennial ryegrass Week 4” value (Perennial ryegrass; 0.96 kg/ha) was 2.0. For the same compound, the “Phytotoxic effect, visual assessment: Perennial ryegrass Week 6” value (Perennial ryegrass; 0.96 kg/ha) was 1.3, the “Phytotoxic effect, visual assessment: Perennial ryegrass Week 2” value (Perennial ryegrass; 1.92 kg/ha) was 3.3 and the “Phytotoxic effect, visual assessment: Perennial ryegrass Week 4” value (Perennial ryegrass; 1.92 kg/ha) was 2.7. The “Phytotoxic effect, visual assessment: Perennial ryegrass Week 6” value (Perennial ryegrass; 1.92 kg/ha) was 2.3, the “Suppression ratio relative to the biomass of the untreated group: Large crabgrass 1 leaf” value (Large crabgrass; .24 kg/ha) was 100% and the “Suppression ratio relative to the biomass of the untreated group: Large crabgrass 2 leaf” value (Large crabgrass; .24 kg/ha) was 89%. The “Suppression ratio relative to the biomass of the untreated group: Large crabgrass 3 leaf” value (Large crabgrass; .24 kg/ha) was 86%, the “Suppression ratio relative to the biomass of the untreated group: Large crabgrass 4 leaf” value (Large crabgrass; .24 kg/ha) was 56% and the “Suppression ratio relative to the biomass of the untreated group: Large crabgrass PRE” value (Large crabgrass; .24 kg/ha) was 100%. For the same compound, the “Suppression ratio relative to the biomass of the untreated group: Large crabgrass 1 leaf” value (Large crabgrass; .48 kg/ha) was 100%, the “Suppression ratio relative to the biomass of the untreated group: Large crabgrass 2 leaf” value (Large crabgrass; .48 kg/ha) was 95% and the “Suppression ratio relative to the biomass of the untreated group: Large crabgrass 3 leaf” value (Large crabgrass; .48 kg/ha) was 89%. The “Suppression ratio relative to the biomass of the untreated group: Large crabgrass 4 leaf” value (Large crabgrass; .48 kg/ha) was 57%, the “Suppression ratio relative to the biomass of the untreated group: Large crabgrass PRE” value (Large crabgrass; .48 kg/ha) was 100% and the “Suppression ratio relative to the biomass of the untreated group: Large crabgrass 1 leaf” value (Large crabgrass; .96 kg/ha) was 100%. The “Suppression ratio relative to the biomass of the untreated group: Large crabgrass 2 leaf” value (Large crabgrass; .96 kg/ha) was 98%, the “Suppression ratio relative to the biomass of the untreated group: Large crabgrass 3 leaf” value (Large crabgrass; .96 kg/ha) was 89% and the “Suppression ratio relative to the biomass of the untreated group: Large crabgrass 4 leaf” value (Large crabgrass; .96 kg/ha) was 66%. The “Suppression ratio relative to the biomass of the untreated group: Large crabgrass PRE” value (Large crabgrass; .96 kg/ha) was 100%, the “Suppression ratio relative to the biomass of the untreated group: Annual bluegrass 1 leaf” value (Annual bluegrass; .24 kg/ha) was 90% and the “Suppression ratio relative to the biomass of the untreated group: Annual bluegrass 2 leaf” value (Annual bluegrass; .24 kg/ha) was 87%. For the same compound, the “Suppression ratio relative to the biomass of the untreated group: Annual bluegrass 3 leaf” value (Annual bluegrass; .24 kg/ha) was 46%, the “Suppression ratio relative to the biomass of the untreated group: Annual bluegrass 4 leaf” value (Annual bluegrass; .24 kg/ha) was 4% and the “Suppression ratio relative to the biomass of the untreated group: Annual bluegrass PRE” value (Annual bluegrass; .24 kg/ha) was 100%. For the same compound, the “Suppression ratio relative to the biomass of the untreated group: Annual bluegrass 1 leaf” value (Annual bluegrass; .48 kg/ha) was 95%, the “Suppression ratio relative to the biomass of the untreated group: Annual bluegrass 2 leaf” value (Annual bluegrass; .48 kg/ha) was 88% and the “Suppression ratio relative to the biomass of the untreated group: Annual bluegrass 3 leaf” value (Annual bluegrass; .48 kg/ha) was 44%. For the same compound, the “Suppression ratio relative to the biomass of the untreated group: Annual bluegrass 4 leaf” value (Annual bluegrass; .48 kg/ha) was 10%, the “Suppression ratio relative to the biomass of the untreated group: Annual bluegrass PRE” value (Annual bluegrass; .48 kg/ha) was 100% and the “Suppression ratio relative to the biomass of the untreated group: Annual bluegrass 1 leaf” value (Annual bluegrass; .96 kg/ha) was 97%. For the same compound, the “Suppression ratio relative to the biomass of the untreated group: Annual bluegrass 2 leaf” value (Annual bluegrass; .96 kg/ha) was 91%, the “Suppression ratio relative to the biomass of the untreated group: Annual bluegrass 3 leaf” value (Annual bluegrass; .96 kg/ha) was 61% and the “Suppression ratio relative to the biomass of the untreated group: Annual bluegrass 4 leaf” value (Annual bluegrass; .96 kg/ha) was 35%. The “Suppression ratio relative to the biomass of the untreated group: Annual bluegrass PRE” value (Annual bluegrass; .96 kg/ha) was 100%.
